Measurements reported in paper PMC6350621, “Small-molecules that covalently react with a human prolyl hydroxylase – towards activity modulation and substrate capture” (Chemical Communications (Cambridge, England), 2018).

Assays:
PHD2 = target: T1, PHD2 (Homo sapiens, UniProt Q9GZT9); assay: Peptide turnover assay (CODD hydroxylation) with MALDI-MS detection; assay type: biochemical; settings: pre-incubation 0, 1, 2 and 4 h
T1 construct: PHD2_181–426 (hereafter PHD2); His6 (N, cleaved yes); made in house; host or cells: bacterial culture (2x TY, kanamycin, IPTG)
T1 sequence (Q9GZT9 181-426): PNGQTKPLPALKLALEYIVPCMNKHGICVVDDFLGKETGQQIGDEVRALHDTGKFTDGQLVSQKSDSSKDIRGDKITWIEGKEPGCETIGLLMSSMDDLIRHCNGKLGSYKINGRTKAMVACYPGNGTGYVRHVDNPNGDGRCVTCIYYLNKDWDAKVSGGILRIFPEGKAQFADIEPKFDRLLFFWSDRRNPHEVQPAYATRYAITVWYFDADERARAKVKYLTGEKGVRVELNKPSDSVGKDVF

[1] = target: T2, PHD2Δ (deletion of residues 238–250) (Homo sapiens, UniProt Q9GZT9, DEL238-250); assay: Non-denaturing ESI-MS crosslinking, loop deletion variant; assay type: binding; settings: equimolar Fe(II) and compound, 3 h, 37 °C, 200 V
T2 construct: PHD2_181–426 (hereafter PHD2); His6 (N, cleaved yes); made in house; host or cells: bacterial culture (2x TY, kanamycin, IPTG)
T2 sequence (Q9GZT9 with tags, fused parts or gaps DEL238-250): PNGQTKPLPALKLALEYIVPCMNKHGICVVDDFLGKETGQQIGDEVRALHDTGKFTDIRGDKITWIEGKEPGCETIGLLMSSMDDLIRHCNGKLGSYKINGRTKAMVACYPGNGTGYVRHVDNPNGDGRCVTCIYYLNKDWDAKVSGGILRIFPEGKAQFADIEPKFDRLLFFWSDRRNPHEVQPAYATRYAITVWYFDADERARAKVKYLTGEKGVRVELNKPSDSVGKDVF
Description: (§1) The site of crosslinking of 3 was investigated using protein variants. First, 3 was incubated with C-terminal truncated PHD2 (PHD2_181–402) and a loop deletion variant (deletion of residues 238–250, PHD2Δ). […] Thus, 3 was incubated with PHD2 constructs truncated at residues 402, 410, 414 and 418. […] Crosslinking experiments with PHD2 R411M implied that R411 is not directly involved in crosslinking (Fig. S11, ESI ^†).
Fig. 3 (A) Non-denaturing ESI-MS data on the flexible loop truncated (top) and C-terminal tail tuncated (bottom) versions of PHD2 in the presence of equimolar Fe(II) and 3 (3 hour incubation, 37 °C. Cone voltage: 200 V). A = [PHD2Δ + Fe], B = [PHD2Δ + Fe + 3], C = [PHD2_181–402 + Fe], D = [PHD2_181–402 + Fe + 3]. (B) MS/MS spectrum of the trypsin derived peptide 403[…]411 crosslinked to 3 identified K408 as the site of crosslinking.

PHD2_181–414 = target: T3, PHD2_181–414 (Homo sapiens, UniProt Q9GZT9); assay: Non-denaturing ESI-MS crosslinking, 414 truncate; assay type: binding; settings: equimolar FeSO4 and compound, 3 h, 37 °C, 200 V
T3 construct: 414 (PHD2_181–414) truncated proteins; His6 (N, cleaved yes); made in house; host or cells: bacterial culture (2x TY, kanamycin, IPTG)
T3 sequence (Q9GZT9 181-414): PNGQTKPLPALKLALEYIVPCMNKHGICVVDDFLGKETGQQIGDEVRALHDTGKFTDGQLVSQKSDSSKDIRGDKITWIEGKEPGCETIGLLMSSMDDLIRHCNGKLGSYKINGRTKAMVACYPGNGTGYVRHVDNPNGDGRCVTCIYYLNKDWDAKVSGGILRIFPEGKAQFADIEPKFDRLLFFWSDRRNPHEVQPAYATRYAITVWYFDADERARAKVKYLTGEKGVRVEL
Description: as §1
(§2) Fig. S8 Temperature dependence of the rate of crosslinking of 3 with PHD2. PHD2 (20 µM) was incubated with equimolar Fe(II) and 3 in buffer (50 mM Tris, 150 mM NaCl, pH 7.5) at 4, 20 and 37 °C. The ratio of crosslinking after 1, 2, and 4 h was determined by ESI-MS under denaturing conditions (n = 2), error bars represent 1 standard deviation.
(§3) Fig. S9 Ratio of crosslinked PHD2.3 before evaluation of catalytic activity. Labelled peaks correspond to: (A): PHD2, […]
(§4) Fig. S10 Non-denaturing ESI-MS analysis of (a) PHD2 and its C-terminal truncations (b) PHD2181-418; (c) PHD2181-414;
(§5) (d) PHD2181-410; (e) PHD2181-402 in the presence of equimolar amounts of FeSO4 and 3 after 3 hours incubation at 37 °C in ammonium acetate (15 mM, pH 7.5) at a sample cone voltage of 200V. Peaks present: (A): PHD2.Fe; (B): PHD2181-

[2] = target: T4, PHD2 truncated at residue 410 (Homo sapiens, UniProt Q9GZT9); assay: Non-denaturing ESI-MS crosslinking, 410 truncate; assay type: binding; settings: equimolar FeSO4 and compound, 3 h, 37 °C, 200 V
T4 construct: PHD2 constructs truncated at residues 402, 410, 414 and 418; Both the 418 (PHD2_181–418); His6 (N, cleaved yes); made in house; host or cells: bacterial culture (2x TY, kanamycin, IPTG)
T4 sequence (Q9GZT9 181-410): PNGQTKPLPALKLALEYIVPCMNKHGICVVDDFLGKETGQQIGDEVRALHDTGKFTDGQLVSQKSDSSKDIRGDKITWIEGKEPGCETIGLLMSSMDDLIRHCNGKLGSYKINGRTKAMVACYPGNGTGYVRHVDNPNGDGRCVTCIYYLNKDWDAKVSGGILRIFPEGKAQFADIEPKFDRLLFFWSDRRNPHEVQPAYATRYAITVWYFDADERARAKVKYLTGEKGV
Description: as §1, §2, §3, §4, §5

KDM4A = target: T5, KDM4A (Homo sapiens, UniProt O75164); assay: Denaturing MS covalent adduct formation with KDM4A; assay type: binding; settings: enzyme 20 μM, Fe(II) 30 μM, compound 30 μM, 37 °C, 4 h
T5 sequence (O75164 1-1064): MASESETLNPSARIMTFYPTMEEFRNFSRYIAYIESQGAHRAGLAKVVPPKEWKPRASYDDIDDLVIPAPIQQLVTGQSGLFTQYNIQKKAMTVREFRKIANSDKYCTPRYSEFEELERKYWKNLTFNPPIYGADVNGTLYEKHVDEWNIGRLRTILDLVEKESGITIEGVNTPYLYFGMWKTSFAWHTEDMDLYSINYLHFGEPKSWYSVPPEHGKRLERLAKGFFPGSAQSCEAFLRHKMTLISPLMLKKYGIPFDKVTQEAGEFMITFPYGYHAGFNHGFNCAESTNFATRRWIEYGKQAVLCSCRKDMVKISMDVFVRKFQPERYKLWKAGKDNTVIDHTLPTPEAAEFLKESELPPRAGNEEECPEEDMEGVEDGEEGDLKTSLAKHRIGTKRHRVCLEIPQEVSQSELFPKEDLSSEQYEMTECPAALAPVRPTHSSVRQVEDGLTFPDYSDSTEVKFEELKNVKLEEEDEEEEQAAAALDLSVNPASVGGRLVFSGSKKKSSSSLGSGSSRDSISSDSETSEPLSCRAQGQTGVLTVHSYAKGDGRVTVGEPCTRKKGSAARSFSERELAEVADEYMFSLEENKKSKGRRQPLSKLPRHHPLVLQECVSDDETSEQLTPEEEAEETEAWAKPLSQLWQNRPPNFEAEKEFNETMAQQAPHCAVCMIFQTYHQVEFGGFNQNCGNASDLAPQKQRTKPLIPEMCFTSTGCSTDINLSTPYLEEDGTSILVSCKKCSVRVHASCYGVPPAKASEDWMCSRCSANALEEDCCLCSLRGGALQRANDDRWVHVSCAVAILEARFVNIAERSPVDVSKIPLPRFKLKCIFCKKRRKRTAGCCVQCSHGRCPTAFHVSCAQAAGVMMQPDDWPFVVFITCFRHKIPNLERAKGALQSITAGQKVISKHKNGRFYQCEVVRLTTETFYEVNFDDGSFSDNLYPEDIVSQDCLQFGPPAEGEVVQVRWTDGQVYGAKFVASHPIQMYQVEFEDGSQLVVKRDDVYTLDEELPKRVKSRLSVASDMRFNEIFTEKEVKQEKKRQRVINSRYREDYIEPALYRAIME
Excerpt: Ligands that covalently modify proteins are used for activity-based profiling by functionalisation with an appropriate handle.[20] […] This method for incorporation of a photoreactive group near the active site of a protein to enable substrate capture is complementary to ‘photoreactive site directed mutagenesis’.[21],[22] Azide 7 was designed for use as a tag to allow ‘click’ conjugation with a handle (e.g. biotin) for activity-based profiling, or as a photoreactive aryl azide for substrate capture. […] There is scope for optimisaiton and broader application of the approach described here. […] Work toward the application of 7 and derivatives in protein profiling and substrate capture in cells is ongoing.
HeLa cells were treated with the […]

PHD2 (residues 181-426) = PHD2 (residues 181-426) (Homo sapiens, UniProt Q9GZT9); assay: biochemical
PHD2 (residues 181-426), sequence (Q9GZT9 181-426): as the sequence (Q9GZT9 181-426) above

SMILES: C=CC(=O)Nc1cccc(C(=O)NCC(=O)O)c1O [compound 3]
- activity of PHD2 pre-incubated with the compound (PHD2): remained as active as the non pre-incubated, uninhibited PHD2
- crosslinking with loop truncate [1]: Crosslinking was maintained
- covalent modification of 414 truncate (PHD2_181–414): covalently modified
- crosslinking with 410 truncate [2]: Crosslinking did not occur
- covalent reaction with KDM4A (KDM4A): did not accrue evidence
- IC50 (PHD2 (residues 181-426)): > 2 mM
